What was measured:
[1] = test system: Human coronary artery endothelial (HCAE) cells; assay: Invasion of HCAE cells through Matrigel toward bFGF; assay type: cell-based; conditions: bFGF 10 ng/ml, 22 h
Experimental: (§1) The design of experiments to measure invasion and migration of endothelial cells toward the angiogenic factor bFGF (basic fibroblast growth factor) is shown in FIGS. 5A and 6A, respectively. The standard assay used 5×10^4 cells added to the top of the insert in 250 μl of medium. The lower portion of the apparatus contained 750 μl of medium, plus or minus bFGF. […] Transmembrane cell invasion and migration assays were performed using BD FluoroBlok (BD Bioscience, Bedford, Mass.) inserts coated with BD Matrigel Matrix (a biologically active basement membrane preparation) or with fibronectin, respectively. […] (R&D System, Minneapolis, Minn.) (FGF) or medium alone (CTR) were added to the lower chamber of the insert plate as a chemoattractant. The cells were allowed to invade or migrate for 22 hours. Cells were labeled post invasion or post migration with Calcein AM (4 μg/ml) and the fluorescence of the cells that invaded through the BD Matrigel Matrix or migrated to the underside of the insert membrane was measured using a plate reader at 485 nm (excitation) and 530 nm (emission).

[2] = test system: Human coronary artery endothelial (HCAE) cells; assay: Migration of HCAE cells through fibronectin-coated insert toward bFGF; assay type: cell-based; conditions: bFGF 10 ng/ml, 22 h
Experimental: as §1

AC-23 = assay: Binding of biotin-conjugated thrombin to complementary peptide AC-23
23C53 = assay: Binding of biotin-conjugated thrombin to complementary peptide 23C53
[3] = test system: Human coronary artery endothelial (HCAE) cells; assay: Invasion of HCAE cells through Matrigel toward PDGF; assay type: cell-based; conditions: PDGF 10 ng/ml, 22 h
Experimental: (§2) The design of experiments to measure invasion and migration of endothelial cells toward the angiogenic factor PDGF (platelet-derived growth factor-BB) is shown in FIGS. 7A and 8A respectively. The standard assay used 5×10^4 cells added to the top of the insert in […] of medium. The lower portion of the apparatus contained 750 μl of medium, plus or minus PDGF. […] Transmembrane cell invasion and migration assays were performed using BD FluoroBlok inserts coated with BD Matrigel Matrix (a biologically active basement membrane preparation) or with fibronectin (BD Bioscience, Bedford, Mass.), respectively. […] PDGF [10 ng/ml] (R&D System, Minneapolis, Minn. (PDGF) or medium alone (CTR) were added to the lower chamber of the insert plate as a chemoattractant. The cells were allowed to invade or migrate for 22 hours. Cells were labeled post invasion or post migration with Calcein AM (4 μg/ml) and the fluorescence of the cells that invaded through the BD Matrigel Matrix or migrated to the underside of the insert membrane was measured using a plate reader at 485 nm (excitation) and 530 nm (emission).

[4] = test system: Human coronary artery endothelial (HCAE) cells; assay: Migration of HCAE cells through fibronectin-coated insert toward PDGF; assay type: cell-based; conditions: PDGF 10 ng/ml, 22 h
Experimental: as §2

AC-23, sequence (as listed by the source): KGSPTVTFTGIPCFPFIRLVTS
23C53, sequence (as listed by the source): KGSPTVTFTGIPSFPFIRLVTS

bFGF: basic fibroblast growth factor, angiogenic factor (R&D System)
bFGF-induced endothelial cell invasion, % of invasion with control medium (CTR) [1]: ~170% | Increase of endothelial cell migration by bFGF compared to control medium not containing bFGF [2]: ~40%

thrombin
Specific binding of biotin-conjugated thrombin to AC23 (AC-23): bind specifically | Specific binding of biotin-conjugated thrombin to 23C53 (23C53): bind specifically

B1: PDGF: platelet-derived growth factor-BB, angiogenic factor (R&D System) (protein, UniProt P01127 82-190, looked up)
Platelet-derived growth …: SLGSLTIAEPAMIAECKTRTEVFEISRRLIDRTNANFLVWPPCVEVQRCSGCCNNRNVQCRPTQVQLRPVQVRKIEIVRKKPIFKKATVTLEDHLACKCETVAAARPVT
Effect of PDGF on endothelial cell invasion compared to control medium without PDGF [3]: no effect | Effect of PDGF on endothelial cell migration compared to control (CTR) [4]: no effect
